Experiment [1] has as its target T1, p53 Y220C mutant protein (amino acid residues 94-293) (Homo sapiens, UniProt P04637, Y220C).
T1 construct: p53 Y220C mutant protein (amino acid residues 94-293)
The experiment can be described thus: Surface Plasmon Resonance (SPR) assay, p53 Y220C Kd_kinetic. The note with it: multi-cycle kinetics, 16 or 20 °C, pH 7.5, 1:1 binding model. A digest of the protocol: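 Kd from multi-cycle SPR kinetics fitted to a 1:1 model, using 2-fold, 7-point compound series over p53 Y220C (residues 94-293). Flow 30 μL/min, 60 s association, 120 s dissociation, at 16 or 20 °C in 50 mM Tris pH 7.5, 100 mM NaCl, 1 mM DTT, 0.01% Brij35, 0.05% Tween-20, 1% DMSO.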

The target of the next experiment is p53 Y220C (Homo sapiens, UniProt P04637, Y220C). Nature of the experiment: Luciferase Reporter Assay, p53 Y220C (NCIH1299 cells with inducible p53 Y220C and p53 response element-luciferase). The class given is cell-based. The note with it: 6 hour compound treatment, read-out: Luc P53 Y220C AC50. A digest of the protocol:
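NCI-H1299 cells stably carrying a p53 response element-luciferase reporter and Tet-inducible p53 Y220C were induced with 0.5 ug/mL doxycycline for 24 h, then treated with compound for 6 h. Luminescence was read after One-Glo addition. AC50 was derived relative to 10 uM tool compound as positive control.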

A further experiment has as its system NUGC3 cells (p53 Y220C). The experiment can be described thus: Cell Proliferation Assay (CellTiter-Glo), NUGC3 p53 Y220C. The class given is cell-based. To be noted: Homo sapiens, NUGC-3, 120 h, 5 days, read-out: CTG NUGC3 P53 Y220C IC50. In short, it runs like this: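 Seeded at 250–500 cells/well, then compound-treated for 5 days; the NCIH1299 lines carry Tet-One inducible p53 Y220C or R273H transduced lentivirally. Viability by CellTiter-Glo luminescence after 10 min at room temperature; IC50 calculated.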
Background: Cellular ATP, detected with luciferase, serves as a proxy for viable cell number.

The test system of experiment [2] is NCIH1299-inducible p53 Y220C cells. The experiment can be described thus: Cell Proliferation Assay (CellTiter-Glo), NCIH1299-inducible p53 Y220C. The class given is cell-based. To be noted: Homo sapiens, NCI-H1299, 120 h, 5 days, read-out: CTG H1299 P53 Y220C IC50. How it is done: Inducible p53 Y220C and R273H constructs (Tet-One inducible expression system; Takara) were stably expressed in NCIH1299 cells by lentiviral transduction. NUGC3, A549, BxPC3, T3M4, HuH7, HCC2935, MFE296, NCIH1299, NCIH1299-inducible p53 Y220C, and NCIH1299-inducible p53 R273H cell lines were used for cell proliferation assay. 250-500 cells were seeded in each well of 384 plate and then compounds were dispensed into each well using Echo or Tecan. After 5 days of incubation, equal volume of CellTiter-Glo reagent (G7570; Promega) was added into each well and the plate was incubated at room temperature for 10 minutes with shaking. The luminescent signal was measured by PheraStar microplate reader and IC50 was calculated.

T1 sequence (P04637 94-293, stated change not applied): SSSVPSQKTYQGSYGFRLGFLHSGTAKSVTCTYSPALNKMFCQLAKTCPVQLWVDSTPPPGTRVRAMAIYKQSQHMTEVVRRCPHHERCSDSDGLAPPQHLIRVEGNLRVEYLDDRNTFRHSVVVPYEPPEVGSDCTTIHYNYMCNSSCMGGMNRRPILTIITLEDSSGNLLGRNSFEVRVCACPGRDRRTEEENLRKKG

The term Kd denotes the concentration at which binding is half-saturated. Low values mean tighter binding, high ones weaker binding. Usually AC50 stands for the concentration giving half of the maximal activity seen. In general, IC50 refers to the concentration that gives 50% inhibition. As to `CN1CC[C@@H](Nc2cccn3c(SC(F)(F)F)c(-c4noc(CNC(=O)C5COC5)n4)cc23)[C@@H](F)C1` [Example 25, N-{[3-(8-{[(3S,4R)-3-fluoro-1-methylpiperidin-4-yl]amino}-3-[(trifluoromethyl)sulfanyl]indolizin-2-yl)-1,2,4-oxadiazol-5-yl]methyl}oxetane-3-carboxamide], the dissociation constant Kd in experiment [1] is under 10 nM. Besides, on p53 Y220C, the AC50 is 1500 to 3000 nM. The IC50 (in the experiment on NUGC3 cells (p53 Y220C); in experiment [2]) was 1500 to 3000 nM each time.
In experiment [1], `COC1(C(=O)NCc2nc(-c3cc4c(N[C@@H]5CCN(C)C[C@@H]5F)cccn4c3SC(F)(F)F)no2)CC1` [Example 26, N-{[3-(8-{[(3S,4R)-3-fluoro-1-methylpiperidin-4-yl]amino}-3-[(trifluoromethyl)sulfanyl]indolizin-2-yl)-1,2,4-oxadiazol-5-yl]methyl}-1-methoxycyclopropane-1-carboxamide] displayed a Kd of 10 to 100 nM. In addition, the AC50 on p53 Y220C is 1500 to 3000 nM. The IC50 (in the experiment with NUGC3 cells (p53 Y220C); in experiment [2]) was 1500 to 3000 nM in each case.
On to `CN1CC[C@@H](Nc2cccn3c(SC(F)(F)F)c(-c4noc(CNC(=O)c5ccns5)n4)cc23)[C@@H](F)C1` [Example 27, N-{[3-(8-{[(3S,4R)-3-fluoro-1-methylpiperidin-4-yl]amino}-3-[(trifluoromethyl)sulfanyl]indolizin-2-yl)-1,2,4-oxadiazol-5-yl]methyl}-1,2-thiazole-5-carboxamide], for which, in experiment [1], the dissociation constant (Kd) is under 10 nM. Moreover, the half-maximal activity concentration (AC50) at p53 Y220C was under 750 nM. The IC50 is under 750 nM in the experiment on NUGC3 cells (p53 Y220C) and 750 to 1500 nM in experiment [2].
Turning to `CN1CC[C@@H](Nc2cccn3c(SC(F)(F)F)c(-c4noc(CNC(=O)[C@H]5COCCO5)n4)cc23)[C@@H](F)C1` [Example 29], the dissociation constant Kd in experiment [1] is under 10 nM. Besides, the concentration at half-maximal activity (AC50) at p53 Y220C lay within 750 to 1500 nM. In addition, the concentration for half-maximal inhibition (IC50) (in the experiment with NUGC3 cells (p53 Y220C); in experiment [2]) was 750 to 1500 nM in each case.
Take `Cc1ccsc1C(=O)NCc1nc(-c2cc3c(N[C@@H]4CCN(C)C[C@@H]4F)cccn3c2SC(F)(F)F)no1` [Example 30, N-{[3-(8-{[(3S,4R)-3-fluoro-1-methylpiperidin-4-yl]amino}-3-[(trifluoromethyl)sulfanyl]indolizin-2-yl)-1,2,4-oxadiazol-5-yl]methyl}-3-methylthiophene-2-carboxamide]: the Kd in experiment [1] fell in the range of 10 to 100 nM. The concentration at half-maximal activity (AC50) on p53 Y220C fell in the range of 750 to 1500 nM. Besides, the half-maximal inhibitory concentration (IC50) (with NUGC3 cells (p53 Y220C); in experiment [2]) was 1500 to 3000 nM throughout.
As for `CN1CC[C@@H](Nc2cccn3c(SC(F)(F)F)c(-c4noc(CNC(=O)C#CC5(C)CC5)n4)cc23)[C@@H](F)C1` [Example 31, N-{[3-(8-{[(3S,4R)-3-fluoro-1-methylpiperidin-4-yl]amino}-3-[(trifluoromethyl)sulfanyl]indolizin-2-yl)-1,2,4-oxadiazol-5-yl]methyl}-3-(1-methylcyclopropyl)prop-2-ynamide], the equilibrium dissociation constant (Kd) in experiment [1] is under 10 nM. Also, the AC50 on p53 Y220C was under 750 nM. In addition, the half-inhibitory concentration (IC50) (in the experiment with NUGC3 cells (p53 Y220C); in experiment [2]) was under 750 nM throughout.
As to `CN1CC[C@@H](Nc2cccn3c(SC(F)(F)F)c(-c4noc(CNC(=O)c5sccc5F)n4)cc23)[C@@H](F)C1` [Example 32, 3-fluoro-N-{[3-(8-{[(3S,4R)-3-fluoro-1-methylpiperidin-4-yl]amino}-3-[(trifluoromethyl)sulfanyl]indolizin-2-yl)-1,2,4-oxadiazol-5-yl]methyl}thiophene-2-carboxamide], the Kd in experiment [1] was under 10 nM. The half-maximal activity concentration (AC50) at p53 Y220C is under 750 nM. For the same molecule, the IC50 (with NUGC3 cells (p53 Y220C); in experiment [2]) was under 750 nM throughout.
With `CN1CC[C@@H](Nc2cccn3c(SC(F)(F)F)c(-c4noc(CNC(=O)c5sccc5N)n4)cc23)[C@@H](F)C1` [Example 33, 3-amino-N-{[3-(8-{[(3S,4R)-3-fluoro-1-methylpiperidin-4-yl]amino}-3-[(trifluoromethyl)sulfanyl]indolizin-2-yl)-1,2,4-oxadiazol-5-yl]methyl}thiophene-2-carboxamide], the dissociation constant Kd in experiment [1] is under 10 nM. In addition, the AC50 at p53 Y220C is under 750 nM. Besides, the 50% inhibitory concentration (IC50) (with NUGC3 cells (p53 Y220C); in experiment [2]) was under 750 nM each time.
As for `COc1ccc2nc(C(=O)NCc3nc(-c4cc5c(N[C@@H]6CCN(C)C[C@@H]6F)cccn5c4SC(F)(F)F)no3)ccc2c1` [Example 34, N-{[3-(8-{[(3S,4R)-3-fluoro-1-methylpiperidin-4-yl]amino}-3-[(trifluoromethyl)sulfanyl]indolizin-2-yl)-1,2,4-oxadiazol-5-yl]methyl}-6-methoxyquinoline-2-carboxamide], the Kd in experiment [1] fell in the range of 10 to 100 nM. The AC50 on p53 Y220C was at least 3000 nM. For the same molecule, the half-maximal inhibitory concentration (IC50) (with NUGC3 cells (p53 Y220C); in experiment [2]) was 1500 to 3000 nM each time.
On to `COc1ccc2cc(C(=O)NCc3nc(-c4cc5c(N[C@@H]6CCN(C)C[C@@H]6F)cccn5c4SC(F)(F)F)no3)n(C)c2c1` [Example 35, N-{[3-(8-{[(3S,4R)-3-fluoro-1-methylpiperidin-4-yl]amino}-3-[(trifluoromethyl)sulfanyl]indolizin-2-yl)-1,2,4-oxadiazol-5-yl]methyl}-6-methoxy-1-methylindole-2-carboxamide], for which, in experiment [1], the Kd lay within 10 to 100 nM. Further, at p53 Y220C, the half-maximal activity concentration (AC50) was at least 3000 nM. Further, the half-inhibitory concentration (IC50) (with NUGC3 cells (p53 Y220C); in experiment [2]) was 1500 to 3000 nM throughout.
Take `CN1CC[C@@H](Nc2cccn3c(SC(F)(F)F)c(-c4noc(CNC(=O)C5(F)CCOCC5)n4)cc23)[C@@H](F)C1` [Example 36, 4-fluoro-N-{[3-(8-{[(3S,4R)-3-fluoro-1-methylpiperidin-4-yl]amino}-3-[(trifluoromethyl)sulfanyl]indolizin-2-yl)-1,2,4-oxadiazol-5-yl]methyl}oxane-4-carboxamide]: the dissociation constant Kd in experiment [1] lay within 10 to 100 nM. Besides, the AC50 on p53 Y220C was 1500 to 3000 nM. Also, the IC50 (in the experiment with NUGC3 cells (p53 Y220C); in experiment [2]) was 1500 to 3000 nM each time.
On to `COc1csc(C(=O)NCc2nc(-c3cc4c(N[C@@H]5CCN(C)C[C@@H]5F)cccn4c3SC(F)(F)F)no2)c1` [Example 37, N-{[3-(8-{[(3S,4R)-3-fluoro-1-methylpiperidin-4-yl]amino}-3-[(trifluoromethyl)sulfanyl]indolizin-2-yl)-1,2,4-oxadiazol-5-yl]methyl}-4-methoxythiophene-2-carboxamide], for which the Kd in experiment [1] was under 10 nM. Moreover, the AC50 at p53 Y220C was under 750 nM. Also, the half-maximal inhibitory concentration (IC50) (in the experiment with NUGC3 cells (p53 Y220C); in experiment [2]) was under 750 nM each time.
With `CN1CC[C@@H](Nc2cccn3c(SC(F)(F)F)c(-c4noc(CNC(=O)c5cc(C#N)cs5)n4)cc23)[C@@H](F)C1` [Example 38, 4-cyano-N-{[3-(8-{[(3S,4R)-3-fluoro-1-methylpiperidin-4-yl]amino}-3-[(trifluoromethyl)sulfanyl]indolizin-2-yl)-1,2,4-oxadiazol-5-yl]methyl}thiophene-2-carboxamide], the Kd in experiment [1] fell in the range of 10 to 100 nM. For the same molecule, the concentration at half-maximal activity (AC50) at p53 Y220C fell in the range of 750 to 1500 nM. Besides, the half-inhibitory concentration (IC50) (in the experiment with NUGC3 cells (p53 Y220C); in experiment [2]) was under 750 nM throughout.
`CN1CC[C@@H](Nc2cccn3c(SC(F)(F)F)c(-c4noc(CNC(=O)c5ccc(C#N)s5)n4)cc23)[C@@H](F)C1` [Example 39, 5-cyano-N-{[3-(8-{[(3S,4R)-3-fluoro-1-methylpiperidin-4-yl]amino}-3-[(trifluoromethyl)sulfanyl]indolizin-2-yl)-1,2,4-oxadiazol-5-yl]methyl}thiophene-2-carboxamide]: the equilibrium dissociation constant (Kd) in experiment [1] lay within 10 to 100 nM. Moreover, at p53 Y220C, the half-maximal activity concentration (AC50) was 750 to 1500 nM. Also, the IC50 (in the experiment on NUGC3 cells (p53 Y220C); in experiment [2]) was under 750 nM throughout.
`CN1CC[C@@H](Nc2cccn3c(SC(F)(F)F)c(-c4noc(CNC(=O)c5ccc6ncsc6c5)n4)cc23)[C@@H](F)C1` [Example 40, N-{[3-(8-{[(3S,4R)-3-fluoro-1-methylpiperidin-4-yl]amino}-3-[(trifluoromethyl)sulfanyl]indolizin-2-yl)-1,2,4-oxadiazol-5-yl]methyl}-1,3-benzothiazole-6-carboxamide]: in experiment [1], the Kd is 10 to 100 nM. The AC50 at p53 Y220C was under 750 nM. Besides, the half-maximal inhibitory concentration (IC50) (in the experiment with NUGC3 cells (p53 Y220C); in experiment [2]) was under 750 nM each time.
Turning to `CN1CC[C@@H](Nc2cccn3c(SC(F)(F)F)c(-c4noc(CNC(=O)c5sccc5OC(F)F)n4)cc23)[C@@H](F)C1` [Example 41, 3-(difluoromethoxy)-N-{[3-(8-{[(3S,4R)-3-fluoro-1-methylpiperidin-4-yl]amino}-3-[(trifluoromethyl)sulfanyl]indolizin-2-yl)-1,2,4-oxadiazol-5-yl]methyl}thiophene-2-carboxamide], the Kd in experiment [1] is 10 to 100 nM. Besides, the concentration at half-maximal activity (AC50) on p53 Y220C lay in the range of 750 to 1500 nM. Besides, the 50% inhibitory concentration (IC50) (in the experiment on NUGC3 cells (p53 Y220C); in experiment [2]) was 750 to 1500 nM throughout.

Source of the values: US20260347353A1, “INDOLIZINE DERIVATIVES FOR TREATING CANCER” (Antares Therapeutics, Inc., priority 2022, published 2026).
